The test system of assay [1] is ENR+CD organoids (ISC to Paneth cell differentiation). The assay can be described thus: Primary screen: basal (non-stimulated) lysozyme secretion LYZ.NS, 2.5-D 384-well ENR+CD organoid differentiation. It is filed as cell-based, mouse. An excerpt: (§1) High-throughput screening.
Assay [2] shares this test system. The assay can be described thus: Primary screen: CCh-stimulated lysozyme secretion LYZ.S, 2.5-D 384-well ENR+CD organoid differentiation. It is filed as cell-based, mouse. The note with it: primary screen.
Source text: as §1

Assay [3] relates to ENR+CD organoids. The assay can be described thus: Primary screen: ATP (CellTiter-Glo 3D, CTG) cell number/viability, 2.5-D 384-well ENR+CD organoids. (ATP-based viability assays read luminescence as a measure of living cells.)
Setting [4] is: primary screen, 1st dose row of the treatment (0.08 uM by row order; dose not reprinted).
[5] abbreviates: primary screen, 2nd dose row of the treatment (0.40 uM by row order; dose not reprinted).
Setting [6] is: primary screen, 3rd dose row of the treatment (2.00 uM by row order; dose not reprinted).
Where [7] appears, read: primary screen, 4th dose row of the treatment (10.00 uM by row order; dose not reprinted).
Where [8] appears, read: 1st dose row of the treatment (0.08 uM by row order; dose not reprinted).
Setting [9] is: 2nd dose row of the treatment (0.40 uM by row order; dose not reprinted).
[10] abbreviates: 3rd dose row of the treatment (2.00 uM by row order; dose not reprinted).
The mark [11] stands for this setting: 4th dose row of the treatment (10.00 uM by row order; dose not reprinted).
Setting [12] is: primary screen, dose 0.08 uM, FC relative to plate median.
The mark [13] stands for this setting: primary screen, dose 0.08 uM, standard z score.
Where [14] appears, read: primary screen, dose 0.40 uM, FC relative to plate median.
Where [15] appears, read: primary screen, dose 0.40 uM, standard z score.
[16] abbreviates: primary screen, dose 2.00 uM, FC relative to plate median.
Setting [17] is: primary screen, dose 2.00 uM, standard z score.
Setting [18] is: primary screen, dose 10.00 uM, FC relative to plate median.
[19] abbreviates: primary screen, dose 10.00 uM, standard z score.
Setting [20] is: primary screen, standard z score, dose 0.08 uM.
[21] abbreviates: primary screen, standard z score, dose 0.40 uM.
Setting [22] is: primary screen, standard z score, dose 2.00 uM.
The mark [23] stands for this setting: primary screen, standard z score, dose 10.00 uM.

Four compounds from patent US20220323406A1, “METHODS AND COMPOSITIONS FOR DIFFERENTIATING STEM CELLS” (Massachusetts Institute of Technology, priority 2019, published 2022) can be followed below.

SMILES strings stand for the structures. Structures can show the parent of a compound that is named as a salt.
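Throughout, for Dose.FC.CTG: compounds given at plating and again on day 3 over a 6-day differentiation from ENR+CV stem-cell-enriched precursors, ATP measured on day 6, plate median as control.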
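Throughout, for SSMD.CTG.Rep (strictly standardized mean difference): compounds given at plating and again on day 3 over a 6-day differentiation from ENR+CV stem-cell-enriched precursors, ATP measured on day 6, plate median as control.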
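Throughout, for Z.CTG (standard z score): compounds given at plating and again on day 3 over a 6-day differentiation from ENR+CV stem-cell-enriched precursors, ATP measured on day 6, plate median as control.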
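Throughout, for Z.CTG: compounds given at plating and again on day 3 over a 6-day differentiation from ENR+CV stem-cell-enriched precursors, ATP measured on day 6, plate median as control.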

Regarding `CC(C)N(CC[C@H](c1ccccc1)c1cc(CO)ccc1O)C(C)C` [5-hydroxymethyl Tolterodine (PNU 200577, 5-HMT, 5-HM)], the “SSMD.LYZ.NS_Rep (strictly standardized mean difference)” value in assay [1] (setting [4]) was 0.915; in assay [1] (setting [5]) it was 0.760; in assay [1] (setting [6]), 0.947; in assay [1] (setting [7]), 0.223. For the same compound, the Dose.FC.LYZ.NS in assay [1] (primary screen, dose 0.08 uM) is given as 0.184 log2 fold change; in assay [1] (primary screen, dose 0.40 uM), 0.076 log2 fold change; in assay [1] (primary screen, dose 2.00 uM), 0.154 log2 fold change; in assay [1] (primary screen, dose 10.00 uM) it was 0.034 log2 fold change. In addition, the “Z.LYZ.NS (standard z score)” value in assay [1] (primary screen, dose 0.08 uM) is 1.599; in assay [1] (primary screen, dose 0.40 uM), 0.665; in assay [1] (primary screen, dose 2.00 uM) it was 1.344; in assay [1] (primary screen, dose 10.00 uM), 0.293. The “SSMD.LYZ.S_Rep (strictly standardized mean difference)” value in assay [2] (setting [8]) is 0.460; in assay [2] (setting [9]), 0.266; in assay [2] (setting [10]) it was 0.174; in assay [2] (setting [11]), −0.042. In addition, the “Z.LYZ.S (standard z score)” value is reported as 0.417 in assay [2] (setting [8]), 0.231 in assay [2] (setting [9]), 0.152 in assay [2] (setting [10]) and −0.044 in assay [2] (setting [11]). Also, the Dose.FC.LYZ.S in assay [2] (dose 0.08 uM) is recorded as 0.065 log2 fold change; in assay [2] (dose 0.40 uM), 0.036 log2 fold change; in assay [2] (dose 2.00 uM), 0.023 log2 fold change; in assay [2] (dose 10.00 uM), −0.007 log2 fold change. Also, the “SSMD.CTG.Rep (strictly standardized mean difference)” value in assay [3] (setting [4]) is reported as −0.118; in assay [3] (setting [5]) it was 0.291; in assay [3] (setting [6]), 0.114; in assay [3] (setting [7]) it was 0.061. The Dose.FC.CTG is listed as −0.062 log2 fold change in assay [3] (primary screen, dose 0.08 uM); 0.087 log2 fold change in assay [3] (primary screen, dose 0.40 uM); 0.034 log2 fold change in assay [3] (primary screen, dose 2.00 uM); 0.017 log2 fold change in assay [3] (primary screen, dose 10.00 uM). Moreover, the “Z.CTG (standard z score)” value in assay [3] (primary screen, dose 0.08 uM) is −0.149; in assay [3] (primary screen, dose 0.40 uM), 0.207; in assay [3] (primary screen, dose 2.00 uM), 0.082; in assay [3] (primary screen, dose 10.00 uM), 0.040.
As for `COc1cc2c(N3CCN(C(=O)Nc4ccc(OC(C)C)cc4)CC3)ncnc2cc1OCCCN1CCCCC1` [Tandutinib (MLN518)], the Dose.FC.LYZ.NS in assay [1] (setting [12]) was 0.095 log2 fold change; in assay [1] (setting [14]) it was 0.122 log2 fold change; in assay [1] (setting [16]) it was 0.116 log2 fold change; in assay [1] (setting [18]), 0.047 log2 fold change. Further, the Z.LYZ.NS in assay [1] (setting [13]) came to 0.828; in assay [1] (setting [15]), 1.066; in assay [1] (setting [17]) it was 1.012; in assay [1] (setting [19]), 0.407. For the same compound, the Dose.FC.LYZ.S in assay [2] (dose 0.08 uM, FC relative to plate median) is on record as 0.145 log2 fold change; in assay [2] (dose 0.40 uM, FC relative to plate median), 0.178 log2 fold change; in assay [2] (dose 2.00 uM, FC relative to plate median), 0.093 log2 fold change; in assay [2] (dose 10.00 uM, FC relative to plate median) it was 0.100 log2 fold change. The Dose.FC.CTG came to 0.585 log2 fold change in assay [3] (setting [12]), 0.354 log2 fold change in assay [3] (setting [14]), 0.358 log2 fold change in assay [3] (setting [16]) and 0.586 log2 fold change in assay [3] (setting [18]). Besides, the Z.CTG is reported as 1.397 in assay [3] (setting [13]), 0.845 in assay [3] (setting [15]), 0.856 in assay [3] (setting [17]) and 1.401 in assay [3] (setting [19]).
As for `Cc1ccc2c(=O)c3cccc(CC(=O)O)c3oc2c1C` [DMXAA (Vadimezan)], the Dose.FC.LYZ.NS is on record as −0.007 log2 fold change in assay [1] (primary screen, dose 0.08 uM); −0.036 log2 fold change in assay [1] (primary screen, dose 0.40 uM); −0.038 log2 fold change in assay [1] (primary screen, dose 2.00 uM); −0.031 log2 fold change in assay [1] (primary screen, dose 10.00 uM). Further, the Z.LYZ.NS in assay [1] (setting [20]) is on record as −0.065; in assay [1] (setting [21]) it was −0.317; in assay [1] (setting [22]) it was −0.334; in assay [1] (setting [23]), −0.271. Besides, the Dose.FC.LYZ.S in assay [2] (dose 0.08 uM) is −0.091 log2 fold change; in assay [2] (dose 0.40 uM) it was −0.009 log2 fold change; in assay [2] (dose 2.00 uM), −0.094 log2 fold change; in assay [2] (dose 10.00 uM), −0.118 log2 fold change. Further, the Dose.FC.CTG in assay [3] (primary screen, dose 0.08 uM) is listed as −0.568 log2 fold change; in assay [3] (primary screen, dose 0.40 uM) it was −0.629 log2 fold change; in assay [3] (primary screen, dose 2.00 uM) it was −0.477 log2 fold change; in assay [3] (primary screen, dose 10.00 uM), −0.230 log2 fold change. The Z.CTG in assay [3] (setting [20]) is −1.357; in assay [3] (setting [21]), −1.502; in assay [3] (setting [22]), −1.139; in assay [3] (setting [23]) it was −0.550.
For the compound `CN(C)CCOc1ccc(/C(=C(/CCCl)c2ccccc2)c2ccccc2)cc1` [Toremifene Citrate], the Dose.FC.LYZ.NS in assay [1] (primary screen, dose 0.08 uM) was 0.051 log2 fold change; in assay [1] (primary screen, dose 0.40 uM), 0.060 log2 fold change; in assay [1] (primary screen, dose 2.00 uM), 0.030 log2 fold change; in assay [1] (primary screen, dose 10.00 uM), −0.198 log2 fold change. Also, the “Z.LYZ.NS (standard z score)” value in assay [1] (primary screen, dose 0.08 uM) was 0.446; in assay [1] (primary screen, dose 0.40 uM), 0.522; in assay [1] (primary screen, dose 2.00 uM), 0.258; in assay [1] (primary screen, dose 10.00 uM), −1.721. Further, the Dose.FC.LYZ.S was 0.078 log2 fold change in assay [2] (dose 0.08 uM), 0.229 log2 fold change in assay [2] (dose 0.40 uM), −0.034 log2 fold change in assay [2] (dose 2.00 uM) and −0.283 log2 fold change in assay [2] (dose 10.00 uM). Besides, the Dose.FC.CTG in assay [3] (primary screen, dose 0.08 uM) is listed as 0.344 log2 fold change; in assay [3] (primary screen, dose 0.40 uM) it was 0.119 log2 fold change; in assay [3] (primary screen, dose 2.00 uM) it was −1.012 log2 fold change; in assay [3] (primary screen, dose 10.00 uM), −1.396 log2 fold change.
